Square brackets hold non-standard residues; d marks the D form. Peptide text beside a SMILES is read from it. * marks the point of attachment. X3 = COc1cc([C@@H]2c3cc4c(cc3[C@@H](Nc3ccc(NC(=O)CCN5C(=O)CC(*)C5=O)cc3)[C@H]3COC(=O)[C@H]23)OCO4)cc(O)c1O; Biotin = O=C1N[C@H]2[C@H](CS[C@H]2CCCCC(=O)*)N1; βAla = NCCC(=O)O

The subject of the first data set is live cells. Briefly: Visualisation of cell internalisation (biotin-avidin and direct fluorescein probe). It is filed as cell-based. To be noted: FIG. 4, visualisation in cells. The protocol:
This assay permitted the study and measurement of cell internalisation without the possibility of observing artefacts emanating from the cell manipulations necessary with the biotinylated peptides. […] (squares when t=10 mins, diamonds when t=60 mins). […] Nuceolar accumulation may be due to non-specific binding of the positively charged peptide to DNA.
With “Biotinyl-βAla-Arg-Gln-Ile-Lys-Ile-Trp-Phe-Gln-Asn-Arg-Arg-Met-Lys-Trp-Lys-Lys-NH2 (ARQIKIWFQNRRMKWKK; N-terminal biotin, beta-residue; C-terminal amide; MOD_RES (1) bAla) [Peptide 1]”, the “subcellular localisation after internalisation” value was “localises predominantly to the cell nucleus and accumulates in the nucleoli, with lesser concentration in the cytosol”.

A further data set deals with HaCaT cells. As to the kind of experiment: Peptide internalisation assay (biotinylated peptides, alkaline phosphatase-streptavidin detection). It is filed as cell-based, human. To be noted: FIG. 2, one peptide concentration, same pattern regardless of concentration. On the procedure: HaCaT cells (immortalised ‘normal’ human […] cell line) were seeded into 96-well plates at 50,000 cells per well in medium (DMEM) with 10% foetal calf serum and antibiotics. After an overnight incubation, peptides were prepared as dilution series in cell medium and were added to the cells. At the end of the incubation period (usually 10 and 60 min), the cells were rinsed three times with PBS and fixed for 20 min at −20° C. in EtOH/AcOH (95:5). After the fixation, the cells were made permeable by treatment for 10 min with PBS containing 3% Tween-20. Endogenous alkaline phosphatase activity was neutralised by incubation at 65° C. for 60 min. Cells were incubated for 30 min at room temperature with alkaline phosphatase-streptavidin (Pierce Chemical Co., Rockford, Ill., USA) in 0.1% BSA in PBS and washed extensively with PBS. Freshly prepared substrate solution (1 mg/mL p-nitrophenyl phosphate disodium (Pierce Chemical Co.) in 10 mM diethanolamine (pH 9.5) containing 0.5 mM MgCl, was added to each well and incubated until sufficient colour had developed (approximately 30 min.). The enzymatic reaction was stopped by adding 50 μL 2 M aq NaOH to each well. Alkaline phosphatase activity was measured spectrophotometrically at 405 nm.
On to “Biotinyl-βAla-Trp-Phe-Gln-Asn-Arg-Arg-Met-Lys-Trp-Lys-Lys-NH2 (Biotin-[βAla]WFQNRRMKWKK-NH2; SMILES CSCC[C@H](NC(=O)[C@H](CCCNC(=N)N)NC(=O)[C@H](CCCNC(=N)N)NC(=O)[C@H](CC(N)=O)NC(=O)[C@H](CCC(N)=O)NC(=O)[C@H](Cc1ccccc1)NC(=O)[C@H](Cc1c[nH]c2ccccc12)NC(=O)CCNC(=O)CCCC[C@@H]1SC[C@@H]2NC(=O)N[C@@H]21)C(=O)N[C@@H](CCCCN)C(=O)N[C@@H](Cc1c[nH]c2ccccc12)C(=O)N[C@@H](CCCCN)C(=O)N[C@@H](CCCCN)C(N)=O) [Peptide 15]”, for which the “degree of internalisation / membrane translocation relative to control peptide 1” value is reported as “only about half of the original signal was left”.

Turning to “Biotinyl-βAla-Arg-Met-Lys-Trp-Lys-Lys-NH2 (Biotin-[βAla]RMKWKK-NH2; SMILES CSCC[C@H](NC(=O)[C@H](CCCNC(=N)N)NC(=O)CCNC(=O)CCCC[C@@H]1SC[C@@H]2NC(=O)N[C@@H]21)C(=O)N[C@@H](CCCCN)C(=O)N[C@@H](Cc1c[nH]c2ccccc12)C(=O)N[C@@H](CCCCN)C(=O)N[C@@H](CCCCN)C(N)=O) [Peptide 20]”, the “degree of internalisation / membrane translocation relative to control peptide 1” value is given as “severe drop”.

For “Biotinyl-βAla-Ile-Trp-Phe-Gln-Asn-Arg-Arg-Met-Lys-Trp-Lys-Lys-NH2 (Biotin-[βAla]IWFQNRRMKWKK-NH2; SMILES CC[C@H](C)[C@H](NC(=O)CCNC(=O)CCCC[C@@H]1SC[C@@H]2NC(=O)N[C@@H]21)C(=O)N[C@@H](Cc1c[nH]c2ccccc12)C(=O)N[C@@H](Cc1ccccc1)C(=O)N[C@@H](CCC(N)=O)C(=O)N[C@@H](CC(N)=O)C(=O)N[C@@H](CCCNC(=N)N)C(=O)N[C@@H](CCCNC(=N)N)C(=O)N[C@@H](CCSC)C(=O)N[C@@H](CCCCN)C(=O)N[C@@H](Cc1c[nH]c2ccccc12)C(=O)N[C@@H](CCCCN)C(=O)N[C@@H](CCCCN)C(N)=O) [Peptide 14]”, the “degree of internalisation / membrane translocation relative to control peptide 1” value is reported as “only about half of the original signal was left”.

The same data set, now with this note: assay of section 1.3.
For the molecule NRRMKWKK, the “internalised into cells / active in the cell internalisation assay (qualitative)” value (“internalised into cells / active” below) is “internalised into cells”.

Take RROWKKK: the “internalised into cells / active” value is recorded as “internalised into cells”.

In the case of RRMKKWK, the “internalised into cells / active” value was “internalised into cells”.

With RRMKWFK, the “internalised into cells / active” value is given as “internalised into cells”.

KKWKORR: the “internalised into cells / active” value is reported as “internalised into cells”.

In the case of RRQKWKK, the “internalised into cells / active” value is “internalised into cells”.

RROKWKK [O = norleucine]: the “internalised into cells / active” value is “internalised into cells”.

On to RREKWKK, for which the “internalised into cells / active” value is given as “internalised into cells”.

For the molecule RKMKWKK, the “internalised into cells / active” value was “internalised into cells”.

QNRRMKWKK: the “internalised into cells / active” value is recorded as “internalised into cells”.

For RRMKQKK, the “internalised into cells / active” value was “internalised into cells”.

In the case of RROKKWK, the “internalised into cells / active” value is recorded as “internalised into cells”.

On to RRMWKKK, for which the “internalised into cells / active” value is recorded as “internalised into cells”.

As to KRMKWKK, the “internalised into cells / active” value was “internalised into cells”.

On to RORKWKK, for which the “internalised into cells / active” value is given as “internalised into cells”.

Regarding RRMKWKK, the “internalised into cells / active” value is recorded as “internalised into cells”.

Tested on in another data set: not listed separately
As to the kind of experiment: Maximum tolerated dose by iv administration in mice. To be noted: mouse, in vivo.
For the molecule `CC[C@H](C)[C@H](NC(=O)[C@H](CCCCN)NC(=O)[C@@H](NC(=O)[C@H](CCC(N)=O)NC(=O)[C@H](CCCNC(=N)N)NC(=O)[C@@H](N)CSC1CC(=O)N(CCC(=O)O[C@H]2c3cc4c(cc3[C@@H](c3cc(OC)c(OC)c(OC)c3)[C@H]3C(=O)OC[C@@H]32)OCO4)C1=O)[C@@H](C)CC)C(=O)N[C@@H](Cc1c[nH]c2ccccc12)C(=O)N[C@@H](Cc1ccccc1)C(=O)N[C@@H](CCC(N)=O)C(=O)N[C@@H](CC(N)=O)C(=O)N[C@@H](CCCNC(=N)N)C(=O)N[C@@H](CCCNC(=N)N)C(=O)N[C@@H](CCSC)C(=O)N[C@@H](CCCCN)C(=O)N[C@@H](Cc1c[nH]c2ccccc12)C(=O)N[C@@H](CCCCN)C(=O)N[C@@H](CCCCN)C(=O)NCC(=O)N[C@@H](CS)C(=O)NCC(N)=O` (some centres unmarked) [podophyllotoxin, 16-mer], the maximum tolerated dose (MTD) (as a rule, the largest dose that counted as tolerated) was roughly 40 mg/kg.

In a further data set the test system is purified recombinant human topoisomerase II. Briefly: Topoisomerase II inhibition assay (cleavage and relaxation of plasmid DNA). It is filed as biochemical. More on the design: key: I denotes inhibition of relaxation of supercoiled plasmid by topoisomerase II; C denotes accumulation of topoisomerase II reaction intermediate. As to conditions: test compound at 1 mM, 100 μM, or 10 μM final concentration; cleavage and relaxation assays. The protocol: Topoisomerase II assay—Plasmid DNA (0.3 μg) was incubated at 37° C. with 4 units of purified recombinant human topoisomerase II in cleavage buffer (30 mM Tris.HCl, pH 7.6, 60 mM NaCl, 3 mM ATP, 15 mM mercaptoethanol, 8 mM MgCl2) with or without the addition of test compound (at 1 mM, 100 μM, or 10 μM final concentration). Reactions were stopped by the immediate addition of SDS (1% w/v final). Samples were treated with proteinase K (30 min at 37° C.) and extracted twice with an equal volume of 42:1 CHCl3/i-amyl alcohol. After adding loading dye samples were loaded to a 4×TAE, 1% agarose gel containing […] ethidium bromide and electrophoresed for 16-24 h. Topoisomerase II inhibition was judged by the production of linear plasmid DNA, representing trapped cleavage intermediate, and by the ratio of substrate (spercoiled DNA) to product (relaxed DNA). A relaxation assay was performed identically, except that the reaction buffer was optimised for the detection of catalysis rather than cleavage i.e. only 2 units of enzyme were used per sample. The reaction buffer was 50 mM Tris.HCl, pH 8, 120 mM KCl, 0.5 mM ATP, 0.5 mM dithiothreitol, 10 mM MgCl2. Topoisomerase II inhibition was judged by the ratio of substrate (supercoiled DNA) to product (relaxed DNA).
For `COc1cc([C@@H]2c3cc4c(cc3[C@@H](Nc3ccc(NC(=O)CCN5C(=O)CC(SC[C@H](N)C(=O)NCCC(=O)N[C@@H](CCCNC(=N)N)C(=O)N[C@@H](CCCNC(=N)N)C(=O)N[C@@H](CCSC)C(=O)N[C@@H](CCCCN)C(=O)N[C@@H](Cc6c[nH]c7ccccc67)C(=O)N[C@@H](CCCCN)C(=O)N[C@@H](CCCCN)C(N)=O)C5=O)cc3)[C@H]3COC(=O)[C@H]23)OCO4)cc(O)c1O` (stereo partly drawn) [4′-Demethyl-4-[4″-aminoanilino-(succinimidopropionoyl)-(H-Cys-βAla-Arg-Arg-Met-Lys-Trp-Lys-Lys-NH2)]epipodophyllotoxin] (H-C(X3)[βAla]RRMKWKK-NH2), the “Activity observed (topoisomerase II)” value is “I”.

With `COc1cc(C2c3cc4c(cc3C(Nc3ccc(N)cc3)C3COC(=O)C23)OCO4)cc(OC)c1O` (centres unmarked) [4′-Demethyl-4-(4″-aminoanilino)epipodophyllotoxin, reference compound], the “Activity observed (topoisomerase II)” value was “I”.

These data come from US7101967B2, “Transport vectors” (priority 1998, dated 2006).
